Legend:
[1] = molecular target: T1, human glucocorticoid receptor (hGR) (Homo sapiens, UniProt P04150); assay: human glucocorticoid receptor binding assay (displacement of 3(H) Triamcinolone acetonide); settings: for hGR, value given as %: concentration not given
T1 construct: made in house; host or cells: Sf21 insect cells infected with baculovirus hGR, OR IM9 lymphoblast cell line (endogenous hGR)
T1 sequence (P04150 1-777): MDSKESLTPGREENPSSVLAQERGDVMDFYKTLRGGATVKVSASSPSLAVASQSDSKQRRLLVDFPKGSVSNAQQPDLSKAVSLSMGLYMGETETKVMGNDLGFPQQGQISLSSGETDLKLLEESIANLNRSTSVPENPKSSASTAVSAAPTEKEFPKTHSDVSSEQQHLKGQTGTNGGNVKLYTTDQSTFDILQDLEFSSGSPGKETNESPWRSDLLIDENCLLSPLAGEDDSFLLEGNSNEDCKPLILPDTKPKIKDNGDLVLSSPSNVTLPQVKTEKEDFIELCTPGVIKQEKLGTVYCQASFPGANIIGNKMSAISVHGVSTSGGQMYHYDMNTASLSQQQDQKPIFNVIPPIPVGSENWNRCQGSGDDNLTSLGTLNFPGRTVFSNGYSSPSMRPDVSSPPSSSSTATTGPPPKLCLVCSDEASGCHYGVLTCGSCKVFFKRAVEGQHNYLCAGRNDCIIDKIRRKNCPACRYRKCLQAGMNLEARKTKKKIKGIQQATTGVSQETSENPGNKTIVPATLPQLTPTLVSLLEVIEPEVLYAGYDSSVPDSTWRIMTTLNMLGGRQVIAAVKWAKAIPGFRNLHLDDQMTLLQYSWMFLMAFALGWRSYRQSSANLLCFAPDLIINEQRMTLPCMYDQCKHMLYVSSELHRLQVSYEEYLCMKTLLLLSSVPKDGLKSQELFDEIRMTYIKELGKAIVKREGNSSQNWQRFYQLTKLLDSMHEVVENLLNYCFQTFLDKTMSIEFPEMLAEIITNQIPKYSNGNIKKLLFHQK
Description: A human glucocorticoid receptor binding assay was carried out to determine the extent to which the compounds of this invention have the ability to bind to human glucocorticoid receptors. This binding ability may be indicative of the antiinflammatory activity of the compound. The test was carried out as follows.
Human glucocorticoid receptors were prepared from either insect cells (Sf21) infected with baculovirus hGR or from a lymphoblast cell line which expresses high levels of endogenous hGR (IM9). The receptor binding reactions, with or without test compounds, were set up in 96-well microtiter plates which were previously siliconized with SIGMACOTE™, a chlorinated organopolysiloxane in heptane. The binding components, 3(H) Triamcinolone acetonide (TAA), glycerol/molybdate-containing buffer and unlabeled compounds were added to the wells using a combination of BIOMEK laboratory automation system and repeat pipettes. After four hours of incubation, the samples were precipitated with polyethylene glycol and filtered through Whatman GF/F paper using a TOMTEK cell harvester. The filter mate with 96 samples were bound to a solid-phase scintillant and directly counted in a BETAPLATE counter. […] The activity of test compounds to displace 3(H) TAA binding to hGR is also expressed as percent inhibition at 1 μM.

[2] = test system: oxazolone-induced ear swelling (MOCH) in albino male CD-1 mice; assay: mouse oxazolone-induced contact hypersensitization (MOCH) ear swelling; assay type: in vivo; parameters: % Inhibition MOCH: concentration or dose not given beside the values; settings: for Oxazolone Ear Swelling (MOCH) % inhibition vs. Vehicle at 1 mg: topical to mouse ear, one hour after oxazolone challenge, ear biopsy weight at 24 hours; for % Inhibition MOCH: mouse, in vivo
Description: Several triphenylpropanamide compounds of this invention, having varying affinities for the human glucocorticoid receptor, were tested for topical antiinflammatory activity in mouse ear inflammation models. […] Compounds having receptor affinities closer to hydrocortisone were as nearly active as hydrocortisone in suppressing mouse oxazolone-induced contact hypersensitization (MOCH) and phorbol ester-induced ear edema. The in vivo studies of this example were conducted as follows.
In determining the MOCH using the compounds of this invention, albino male CD-1 mice, 7-9 weeks old were induced on the shaved abdomen with 50 μl of 3% oxazolone in acetone/corn oil (Day 0). On Day 5, a 20 μl volume of 2% oxazolone in acetone was applied to the dorsal left ear of the mouse . Compounds (made in ethanol/propylene glycol, 70:30) were applied to the left ear in 20 μl volume, one hour after oxazolone challenge. The right ear was not treated. The mice were sacrificed by carbon dioxide inhalation 24 hours after oxazolone challenge, the left and right ears were removed and a 7 mm biopsy was removed from each ear and weighed. The difference in biopsy weights between the right and left ears was calculated. Antiinflammatory effects of compounds were evident as an inhibition of the increase in ear weight.

Row | IC50 [1] [nM] | SMILES | further results
1 | 910 | COc1ccc(CC(=O)NCC(c2ccccc2)C(c2ccccc2)c2ccccc2)cc1 (stereo not shown) [Compound 6] | 
2 | 1480 | O=C(Cc1ccc(Cl)c(Cl)c1)NCC(c1ccccc1)C(c1ccccc1)c1ccccc1 (stereo not shown) [Compound 9] | 
3 | 780 | O=C(NCC(c1ccccc1)C(c1ccccc1)c1ccccc1)C(c1ccccc1)c1ccccc1 (stereo not shown) [Compound 13] | 
4 | 103 | O=C(CCc1ccccc1Cl)NCC(c1ccccc1)C(c1ccccc1)c1ccccc1 (stereo not shown) [Compound 22] | 
5 | 210 | O=S(=O)(Cc1ccccc1)NCC(c1ccccc1)C(c1ccccc1)c1ccccc1 (stereo not shown) [Compound 25] | 
6 | 175 | Cc1ccc(S(=O)(=O)NCC(c2ccccc2)C(c2ccccc2)c2ccccc2)cc1 (stereo not shown) [Compound 26] | 
7 | 67 | O=C(CS(=O)(=O)c1ccccc1)NCC(c1ccccc1)C(c1ccccc1)c1ccccc1 (stereo not shown) [Compound 27] | 
8 | 57 | Cc1ccc(S(=O)(=O)CC(=O)NCC(c2ccccc2)C(c2ccccc2)c2ccccc2)cc1 (stereo not shown) [Compound 28] | 
9 | 50 | Cc1ccc(C(=O)NCC(c2ccccc2)C(c2ccccc2)c2ccccc2)s1 (stereo not shown) [Compound 30] | 
10 | 8 | O=C(Cc1cccs1)NCC(c1ccccc1)C(c1ccc(F)cc1)c1ccc(F)cc1 (stereo not shown) [Compound 31] | 
11 | 8.6 | O=C(Cc1cccs1)NCC(c1ccc(I)cc1)C(c1ccccc1)c1ccccc1 (stereo not shown) [Compound 33] | 
12 | 54 | O=C(Cc1ccsc1)NCC(c1ccc(Cl)cc1)C(c1ccccc1)c1ccccc1 (stereo not shown) [Compound 35] | 
13 | 189 | O=C(C=Cc1cccs1)NCC(c1ccccc1)C(c1ccccc1)c1ccccc1 (stereo not shown) [Compound 38] | 
14 | 727 | O=C(C=Cc1ccsc1)NCC(c1ccccc1)C(c1ccccc1)c1ccccc1 (stereo not shown) [Compound 39] | 
15 | 491 | O=S(=O)(NCC(c1ccc(Cl)cc1)C(c1ccccc1)c1ccccc1)c1cccs1 (stereo not shown) [Compound 41] | 
16 | 495 | O=C(NCC(c1ccccc1)C(c1ccccc1)c1ccccc1)c1cc2ccccc2s1 (stereo not shown) [Compound 43] | 
17 | 133 | CN(CC(c1ccccc1)C(c1ccccc1)c1ccccc1)C(=O)Cc1cccs1 (stereo not shown) [Compound 44] | 
18 |  | O=C(NCC(c1ccccc1)C(c1ccccc1)c1ccccc1)Nc1ccccc1 (stereo not shown) [Compound 50] | Oxazolone Ear Swelling (MOCH) % inhibition vs. Vehicle at 1 mg [2]: 30%
19 |  | COc1ccccc1NC(=O)NCC(c1ccccc1)C(c1ccccc1)c1ccccc1 (stereo not shown) [Compound 51] | hGR, value given as % [1]: 32%
20 | 273 | O=C(NCC(c1ccccc1)C(c1ccccc1)c1ccccc1)Nc1ccccc1Cl (stereo not shown) [Compound 52] | 
21 | 293 | O=C(NCC(c1ccccc1)C(c1ccccc1)c1ccccc1)Nc1ccccc1F (stereo not shown) [Compound 53] | 
22 | 219 | O=C(NCc1ccccc1)NCC(c1ccccc1)C(c1ccccc1)c1ccccc1 (stereo not shown) [Compound 54] | 
23 | 121 | O=C(NCc1ccc(Cl)cc1Cl)NCC(c1ccccc1)C(c1ccccc1)c1ccccc1 (stereo not shown) [Compound 55] | 
24 | 446 | CCCC(=O)NCC(c1ccccc1)C(c1ccccc1)c1ccccc1 (stereo not shown) [Compound 60] | 
25 | 584 | CC(C)C(=O)NCC(c1ccccc1)C(c1ccccc1)c1ccccc1 (stereo not shown) [Compound 61] | 
26 | 121 | CCCCC(=O)NCC(c1ccccc1)C(c1ccccc1)c1ccccc1 (stereo not shown) [Compound 62] | 
27 | 316 | CC(C)CC(=O)NCC(c1ccccc1)C(c1ccccc1)c1ccccc1 (stereo not shown) [Compound 63] | 

Row | IC50 [1] [nM] | SMILES | further results
28 | 296 | CC(C)(C)C(=O)NCC(c1ccccc1)C(c1ccccc1)c1ccccc1 (stereo not shown) [Compound 64] | 
29 | 937 | CCOC(=O)CC(=O)NCC(c1ccccc1)C(c1ccccc1)c1ccccc1 (stereo not shown) [Compound 65] | 
30 |  | COc1ccccc1CC(=O)NCC(c1ccccc1)C1c2ccccc2-c2ccccc21 (stereo not shown) [Compound 67] | hGR, value given as % [1]: 23%
31 |  | COc1ccccc1CCC(=O)NCC(c1ccccc1)C1c2ccccc2-c2ccccc21 (stereo not shown) [Compound 70] | hGR, value given as % [1]: 53%
32 | 770 | O=C(Cc1ccccc1)NCC(c1ccccc1)C1c2ccccc2CCc2ccccc21 (stereo not shown) [Compound 73] | 
33 | 388 | COc1ccccc1CCC(=O)NCC(c1ccccc1)C1c2ccccc2CCc2ccccc21 (stereo not shown) [Compound 74] | 
34 | 363 | O=C(Cc1cccs1)NCC(c1ccccc1)C1c2ccccc2CCc2ccccc21 (stereo not shown) [Compound 75] | 
35 | 571 | O=C(Cc1ccsc1)NCC(c1ccccc1)C1c2ccccc2CCc2ccccc21 (stereo not shown) [Compound 76] | 
36 | 882 | Cc1ccc(C(=O)NCC(c2ccccc2)C2c3ccccc3CCc3ccccc32)s1 (stereo not shown) [Compound 77] | 
37 | 709 | COc1ccccc1CCC(=O)NCC1(c2ccccc2)CC1(c1ccccc1)c1ccccc1 (stereo not shown) [Compound 81] | 
38 | 425 | O=C(Cc1cccs1)NCC1(c2ccccc2)CC1(c1ccccc1)c1ccccc1 (stereo not shown) [Compound 88] | 
39 | 612 | O=C(NCC1(c2ccccc2)CC1(c1ccccc1)c1ccccc1)c1cccs1 (stereo not shown) [Compound 90] | 
40 | 421 | Cc1ccc(C(=O)NCC2(c3ccccc3)CC2(c2ccccc2)c2ccccc2)s1 (stereo not shown) [Compound 91] | 
41 |  | O=C(Cc1ccc(Cl)cc1)NCC(c1ccc2c(c1)OCO2)C(c1ccccc1)c1ccccc1 (stereo not shown) [Compound 98] | Oxazolone Ear Swelling (MOCH) % inhibition vs. Vehicle at 1 mg [2]: 85%; topical antiinflammatory activity in the oxazolone model (in words) ([2]; topical, mouse ear): equiactive with hydrocortisone
42 |  | O=C(Cc1cccs1)NCC(c1ccc2c(c1)OCO2)C(c1ccccc1)c1ccccc1 (stereo not shown) [Compound 99] | % Inhibition MOCH [2]: 35%
43 |  | Cc1c(CC(=O)NCC(c2ccc3c(c2)OCO3)C(c2ccccc2)c2ccccc2)sc2ccc(Cl)cc12 (stereo not shown) [Compound 100] | % Inhibition MOCH [2]: 18%
44 |  | O=C(Cc1cc2cc(Cl)ccc2s1)NCC(c1ccc2c(c1)OCO2)C(c1ccccc1)c1ccccc1 (stereo not shown) [Compound 101] | % Inhibition MOCH [2]: 26%
45 |  | O=C(Cc1ccccn1)NCC(c1ccc2c(c1)OCO2)C(c1ccccc1)c1ccccc1 (stereo not shown) [Compound 102] | % Inhibition MOCH [2]: 51%
46 |  | O=C(Cc1cccc(C(F)(F)F)c1)NCC(c1ccc2c(c1)OCO2)C(c1ccccc1)c1ccccc1 (stereo not shown) [Compound 103] | % Inhibition MOCH [2]: 37%
47 |  | O=C(Cc1cc(C(F)(F)F)cc(C(F)(F)F)c1)NCC(c1ccc2c(c1)OCO2)C(c1ccccc1)c1ccccc1 (stereo not shown) [Compound 104] | % Inhibition MOCH [2]: 52%
48 |  | O=C(Cc1ccc([N+](=O)[O-])cc1)NCC(c1ccc2c(c1)OCO2)C(c1ccccc1)c1ccccc1 (stereo not shown) [Compound 105] | % Inhibition MOCH [2]: 24%
49 |  | CCCCOc1ccc(CC(=O)NCC(c2ccc3c(c2)OCO3)C(c2ccccc2)c2ccccc2)cc1 (stereo not shown) [Compound 106] | % Inhibition MOCH [2]: 52%
50 |  | COc1ccccc1CC(=O)NCC(c1ccc2c(c1)OCO2)C(c1ccccc1)c1ccccc1 (stereo not shown) [Compound 107] | % Inhibition MOCH [2]: 28%
51 |  | COc1cc(CC(=O)NCC(c2ccc3c(c2)OCO3)C(c2ccccc2)c2ccccc2)cc(OC)c1 (stereo not shown) [Compound 108] | % Inhibition MOCH [2]: 38%
52 |  | O=C(Cc1ccccc1)NCC(c1ccc2c(c1)OCO2)C(c1ccccc1)c1ccccc1 (stereo not shown) [Compound 109] | % Inhibition MOCH [2]: 22%
53 |  | O=C(Cc1cccc(F)c1)NCC(c1ccc2c(c1)OCO2)C(c1ccccc1)c1ccccc1 (stereo not shown) [Compound 110] | % Inhibition MOCH [2]: 20%
54 |  | O=C(Cc1ccc(F)cc1F)NCC(c1ccc2c(c1)OCO2)C(c1ccccc1)c1ccccc1 (stereo not shown) [Compound 111] | % Inhibition MOCH [2]: 60%

Row | SMILES | IC50 [1] [nM] | further results
55 | O=C(NCC(c1ccccc1)C(c1ccccc1)c1ccccc1)Oc1ccccc1 (stereo not shown) [Compound 56] | 310 | 
56 | O=C(NCC(c1ccccc1)C(c1ccccc1)c1ccccc1)Oc1ccc(F)cc1 (stereo not shown) [Compound 58] | 240 | 
57 | O=C(NCC(c1ccccc1)C(c1ccccc1)c1ccccc1)Oc1ccc2ccccc2c1 (stereo not shown) [Compound 59] | 155 | 
